Laboratory results as given in ChEMBL document CHEMBL4507300 (2021).

Assays:
[1] = target: Activin receptor type-2A (Homo sapiens) (UniProt P27037); settings: Compound concentration 1000.0 nM
[2] = target: Activin receptor type-1-like (Homo sapiens) (UniProt P37023); settings: Compound concentration 1000.0 nM
[3] = target: 5'-AMP-activated protein kinase catalytic subunit alpha-2 (Homo sapiens) (UniProt P54646); settings: Compound concentration 1000.0 nM
[4] = target: Aurora kinase A (Homo sapiens) (UniProt O14965); settings: Compound concentration 1000.0 nM
[5] = target: Aurora kinase C (Homo sapiens) (UniProt Q9UQB9); settings: Compound concentration 1000.0 nM
[6] = target: Tyrosine-protein kinase Blk (Homo sapiens) (UniProt P51451); settings: Compound concentration 1000.0 nM
[7] = target: Bone morphogenetic protein receptor type-1A (Homo sapiens) (UniProt P36894); settings: Compound concentration 1000.0 nM
[8] = target: Protein-tyrosine kinase 6 (Homo sapiens) (UniProt Q13882); settings: Compound concentration 1000.0 nM
[9] = target: Serine/threonine-protein kinase BRSK1 (Homo sapiens) (UniProt Q8TDC3); settings: Compound concentration 1000.0 nM
[10] = target: Calcium/calmodulin-dependent protein kinase type II subunit delta (Homo sapiens) (UniProt Q13557); settings: Compound concentration 1000.0 nM
[11] = target: Cyclin-dependent kinase 3 (Homo sapiens) (UniProt Q00526); settings: Compound concentration 1000.0 nM
[12] = target: Cyclin-dependent kinase 4 (Homo sapiens) (UniProt P11802); settings: Compound concentration 1000.0 nM
[13] = target: Tyrosine-protein kinase CSK (Homo sapiens) (UniProt P41240); settings: Compound concentration 1000.0 nM
[14] = target: Casein kinase I isoform delta (Homo sapiens) (UniProt P48730); settings: Compound concentration 1000.0 nM
[15] = system: Epidermal growth factor receptor (Homo sapiens), P00533 [L858R]; settings: Compound concentration 1000.0 nM
[16] = target: Ephrin type-A receptor 7 (Homo sapiens) (UniProt Q15375); settings: Compound concentration 1000.0 nM
[17] = target: Ephrin type-A receptor 8 (Homo sapiens) (UniProt P29322); settings: Compound concentration 1000.0 nM
[18] = target: Mitogen-activated protein kinase 15 (Homo sapiens) (UniProt Q8TD08); settings: Compound concentration 1000.0 nM
[19] = target: Tyrosine-protein kinase Fgr (Homo sapiens) (UniProt P09769); settings: Compound concentration 1000.0 nM
[20] = system: Receptor-type tyrosine-protein kinase FLT3 (Homo sapiens), P36888 [UNDEFINED MUTATION]; settings: Compound concentration 1000.0 nM
[21] = system: Receptor-type tyrosine-protein kinase FLT3 (Homo sapiens), P36888 [K663Q]; settings: Compound concentration 1000.0 nM
[22] = target: Homeodomain-interacting protein kinase 2 (Homo sapiens) (UniProt Q9H2X6); settings: Compound concentration 1000.0 nM
[23] = target: Inhibitor of nuclear factor kappa-B kinase subunit epsilon (Homo sapiens) (UniProt Q14164); settings: Compound concentration 1000.0 nM
[24] = target: Tyrosine-protein kinase JAK2 (Homo sapiens) (UniProt O60674); settings: Compound concentration 1000.0 nM
[25] = target: LIM domain kinase 1 (Homo sapiens) (UniProt P53667); settings: Compound concentration 1000.0 nM
[26] = target: Serine/threonine-protein kinase 10 (Homo sapiens) (UniProt O94804); settings: Compound concentration 1000.0 nM
[27] = target: Tyrosine-protein kinase Lyn (Homo sapiens) (UniProt P07948); settings: Compound concentration 1000.0 nM
[28] = target: Mitogen-activated protein kinase kinase kinase 13 (Homo sapiens) (UniProt O43283); settings: Compound concentration 1000.0 nM
[29] = target: Mitogen-activated protein kinase kinase kinase 9 (Homo sapiens) (UniProt P80192); settings: Compound concentration 1000.0 nM
[30] = target: Serine/threonine-protein kinase Nek10 (Homo sapiens) (UniProt Q6ZWH5); settings: Compound concentration 1000.0 nM
[31] = target: Serine/threonine-protein kinase NLK (Homo sapiens) (UniProt Q9UBE8); settings: Compound concentration 1000.0 nM
[32] = target: Cyclin-dependent kinase 18 (Homo sapiens) (UniProt Q07002); settings: Compound concentration 1000.0 nM
[33] = target: Platelet-derived growth factor receptor alpha (Homo sapiens) (UniProt P16234); settings: Compound concentration 1000.0 nM
[34] = target: Calcium-dependent protein kinase 1 (Plasmodium falciparum) (UniProt P62344); settings: Compound concentration 1000.0 nM
[35] = target: Protein kinase C epsilon type (Homo sapiens) (UniProt Q02156); settings: Compound concentration 1000.0 nM
[36] = system: Proto-oncogene tyrosine-protein kinase receptor Ret (Homo sapiens), P07949 [V804M]; settings: Compound concentration 1000.0 nM
[37] = target: Serine/threonine-protein kinase RIO3 (Homo sapiens) (UniProt O14730); settings: Compound concentration 1000.0 nM
[38] = target: Rho-associated protein kinase 2 (Homo sapiens) (UniProt O75116); settings: Compound concentration 1000.0 nM
[39] = target: Serine/threonine-protein kinase SIK2 (Homo sapiens) (UniProt Q9H0K1); settings: Compound concentration 1000.0 nM
[40] = target: Serine/threonine-protein kinase 36 (Homo sapiens) (UniProt Q9NRP7); settings: Compound concentration 1000.0 nM
[41] = target: Non-receptor tyrosine-protein kinase TNK1 (Homo sapiens) (UniProt Q13470); settings: Compound concentration 1000.0 nM
[42] = target: Serine/threonine-protein kinase VRK2 (Homo sapiens) (UniProt Q86Y07); settings: Compound concentration 1000.0 nM
[43] = target: Serine/threonine-protein kinase WNK2 (Homo sapiens) (UniProt Q9Y3S1); settings: Compound concentration 1000.0 nM
[44] = target: Mu-type opioid receptor (Homo sapiens) (UniProt P35372); settings: Compound concentration 10.0 uM
[45] = target: Alpha-1B adrenergic receptor (Homo sapiens) (UniProt P35368); settings: Compound concentration 10.0 uM
[46] = target: Alpha-1D adrenergic receptor (Homo sapiens) (UniProt P25100); settings: Compound concentration 10.0 uM

Sequence of Casein kinase I isoform delta (Homo sapiens) (P48730 whole entry, looked up, canonical isoform): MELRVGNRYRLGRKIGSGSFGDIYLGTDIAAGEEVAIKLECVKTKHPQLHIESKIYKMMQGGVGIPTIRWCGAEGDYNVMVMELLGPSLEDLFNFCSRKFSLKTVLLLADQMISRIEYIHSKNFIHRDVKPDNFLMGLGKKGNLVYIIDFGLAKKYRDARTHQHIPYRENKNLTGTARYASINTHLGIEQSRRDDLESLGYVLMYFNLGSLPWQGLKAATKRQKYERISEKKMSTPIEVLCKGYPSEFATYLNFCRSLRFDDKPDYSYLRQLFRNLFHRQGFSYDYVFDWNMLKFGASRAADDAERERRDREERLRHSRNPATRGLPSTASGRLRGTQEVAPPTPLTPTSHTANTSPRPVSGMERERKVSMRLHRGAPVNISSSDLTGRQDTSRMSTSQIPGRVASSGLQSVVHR
Sequence of Serine/threonine-protein kinase VRK2 (Homo sapiens) (Q86Y07 whole entry): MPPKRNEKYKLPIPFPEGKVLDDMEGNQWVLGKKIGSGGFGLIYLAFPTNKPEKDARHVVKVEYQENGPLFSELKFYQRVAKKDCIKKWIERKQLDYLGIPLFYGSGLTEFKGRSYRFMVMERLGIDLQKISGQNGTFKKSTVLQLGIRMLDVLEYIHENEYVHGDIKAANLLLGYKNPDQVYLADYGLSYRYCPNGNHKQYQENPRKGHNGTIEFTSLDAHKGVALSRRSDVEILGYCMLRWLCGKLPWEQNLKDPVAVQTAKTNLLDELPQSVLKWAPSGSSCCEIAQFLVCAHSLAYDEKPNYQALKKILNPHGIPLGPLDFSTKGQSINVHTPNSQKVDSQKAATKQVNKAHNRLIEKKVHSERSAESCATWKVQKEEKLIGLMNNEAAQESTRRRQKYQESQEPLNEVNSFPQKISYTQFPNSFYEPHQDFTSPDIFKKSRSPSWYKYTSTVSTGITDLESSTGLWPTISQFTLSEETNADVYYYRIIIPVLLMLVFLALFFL
Sequence of Serine/threonine-protein kinase WNK2 (Homo sapiens) (Q9Y3S1 whole entry): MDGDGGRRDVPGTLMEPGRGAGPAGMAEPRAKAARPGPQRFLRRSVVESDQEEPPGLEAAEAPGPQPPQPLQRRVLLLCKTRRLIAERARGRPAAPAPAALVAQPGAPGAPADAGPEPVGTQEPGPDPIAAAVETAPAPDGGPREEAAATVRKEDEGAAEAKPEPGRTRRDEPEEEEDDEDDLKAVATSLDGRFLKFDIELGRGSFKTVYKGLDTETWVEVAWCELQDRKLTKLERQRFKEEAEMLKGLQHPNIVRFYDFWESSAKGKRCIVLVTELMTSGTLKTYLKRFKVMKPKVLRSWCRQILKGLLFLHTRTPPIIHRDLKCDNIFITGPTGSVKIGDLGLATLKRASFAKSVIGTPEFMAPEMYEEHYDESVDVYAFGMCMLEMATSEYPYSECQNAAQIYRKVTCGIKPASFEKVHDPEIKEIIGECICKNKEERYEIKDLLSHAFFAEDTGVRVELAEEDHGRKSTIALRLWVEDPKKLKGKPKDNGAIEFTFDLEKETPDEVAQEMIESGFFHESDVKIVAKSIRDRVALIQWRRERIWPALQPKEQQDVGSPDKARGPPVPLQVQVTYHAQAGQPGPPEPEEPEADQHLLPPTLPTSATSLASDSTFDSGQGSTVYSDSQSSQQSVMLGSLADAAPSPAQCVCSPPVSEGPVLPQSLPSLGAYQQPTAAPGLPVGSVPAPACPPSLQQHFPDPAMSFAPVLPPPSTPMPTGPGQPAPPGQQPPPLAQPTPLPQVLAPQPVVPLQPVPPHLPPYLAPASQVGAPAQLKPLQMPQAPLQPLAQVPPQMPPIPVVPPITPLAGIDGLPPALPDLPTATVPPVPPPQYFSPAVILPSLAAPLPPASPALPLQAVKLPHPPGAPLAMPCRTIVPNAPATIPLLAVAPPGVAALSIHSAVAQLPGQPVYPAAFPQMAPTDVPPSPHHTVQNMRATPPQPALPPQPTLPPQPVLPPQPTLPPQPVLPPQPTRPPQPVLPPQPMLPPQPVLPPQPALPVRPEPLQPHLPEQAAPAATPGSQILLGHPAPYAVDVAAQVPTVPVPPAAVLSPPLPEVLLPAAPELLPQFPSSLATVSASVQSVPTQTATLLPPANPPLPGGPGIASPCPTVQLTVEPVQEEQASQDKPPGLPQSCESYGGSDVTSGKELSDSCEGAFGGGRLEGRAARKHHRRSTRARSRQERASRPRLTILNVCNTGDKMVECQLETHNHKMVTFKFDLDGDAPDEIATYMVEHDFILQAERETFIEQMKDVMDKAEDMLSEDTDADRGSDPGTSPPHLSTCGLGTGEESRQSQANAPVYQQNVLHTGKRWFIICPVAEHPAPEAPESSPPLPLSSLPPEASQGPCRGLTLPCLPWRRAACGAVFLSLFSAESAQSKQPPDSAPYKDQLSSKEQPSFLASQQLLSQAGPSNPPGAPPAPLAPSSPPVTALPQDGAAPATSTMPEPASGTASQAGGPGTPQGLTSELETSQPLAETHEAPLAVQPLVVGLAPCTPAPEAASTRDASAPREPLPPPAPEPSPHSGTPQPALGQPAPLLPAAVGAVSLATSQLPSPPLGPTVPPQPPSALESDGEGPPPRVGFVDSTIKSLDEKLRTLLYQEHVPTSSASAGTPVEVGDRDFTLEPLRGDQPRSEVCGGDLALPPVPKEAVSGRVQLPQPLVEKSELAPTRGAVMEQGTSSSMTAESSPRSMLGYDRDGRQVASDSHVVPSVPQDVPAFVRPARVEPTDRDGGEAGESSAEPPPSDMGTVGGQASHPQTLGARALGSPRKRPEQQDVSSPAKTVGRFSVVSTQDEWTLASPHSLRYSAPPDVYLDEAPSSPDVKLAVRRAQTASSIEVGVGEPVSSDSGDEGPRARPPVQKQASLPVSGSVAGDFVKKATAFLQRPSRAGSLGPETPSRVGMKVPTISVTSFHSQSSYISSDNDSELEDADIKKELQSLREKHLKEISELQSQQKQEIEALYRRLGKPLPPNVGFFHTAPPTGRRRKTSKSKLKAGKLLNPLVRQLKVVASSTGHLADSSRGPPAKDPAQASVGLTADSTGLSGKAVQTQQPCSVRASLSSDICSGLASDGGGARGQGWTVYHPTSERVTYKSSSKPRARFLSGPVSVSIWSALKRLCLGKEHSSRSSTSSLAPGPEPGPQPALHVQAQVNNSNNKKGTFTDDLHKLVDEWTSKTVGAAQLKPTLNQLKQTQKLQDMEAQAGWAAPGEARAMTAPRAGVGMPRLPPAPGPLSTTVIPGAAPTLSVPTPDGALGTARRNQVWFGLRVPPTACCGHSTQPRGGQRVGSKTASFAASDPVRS
Sequence of Serine/threonine-protein kinase BRSK1 (Homo sapiens) (Q8TDC3 whole entry): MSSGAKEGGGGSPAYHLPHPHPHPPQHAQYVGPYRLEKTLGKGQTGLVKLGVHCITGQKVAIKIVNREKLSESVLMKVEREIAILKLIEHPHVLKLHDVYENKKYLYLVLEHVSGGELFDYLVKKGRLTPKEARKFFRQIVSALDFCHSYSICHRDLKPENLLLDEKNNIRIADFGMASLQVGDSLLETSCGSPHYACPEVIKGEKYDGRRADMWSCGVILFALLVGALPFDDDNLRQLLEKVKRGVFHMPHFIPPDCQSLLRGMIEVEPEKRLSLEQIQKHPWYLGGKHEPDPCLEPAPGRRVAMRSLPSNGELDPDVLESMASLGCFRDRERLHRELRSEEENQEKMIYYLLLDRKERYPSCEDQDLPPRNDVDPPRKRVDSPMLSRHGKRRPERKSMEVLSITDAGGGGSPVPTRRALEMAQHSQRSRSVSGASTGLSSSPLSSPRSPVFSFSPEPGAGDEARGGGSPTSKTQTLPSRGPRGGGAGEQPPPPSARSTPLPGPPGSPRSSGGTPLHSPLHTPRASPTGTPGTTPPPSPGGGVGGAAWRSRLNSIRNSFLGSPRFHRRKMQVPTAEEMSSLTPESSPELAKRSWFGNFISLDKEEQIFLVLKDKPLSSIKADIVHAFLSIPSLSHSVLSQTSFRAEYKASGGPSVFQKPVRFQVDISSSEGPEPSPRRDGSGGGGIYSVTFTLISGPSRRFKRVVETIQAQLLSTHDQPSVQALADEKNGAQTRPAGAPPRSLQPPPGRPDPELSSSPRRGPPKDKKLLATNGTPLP
Sequence of Mu-type opioid receptor (Homo sapiens) (P35372 whole entry): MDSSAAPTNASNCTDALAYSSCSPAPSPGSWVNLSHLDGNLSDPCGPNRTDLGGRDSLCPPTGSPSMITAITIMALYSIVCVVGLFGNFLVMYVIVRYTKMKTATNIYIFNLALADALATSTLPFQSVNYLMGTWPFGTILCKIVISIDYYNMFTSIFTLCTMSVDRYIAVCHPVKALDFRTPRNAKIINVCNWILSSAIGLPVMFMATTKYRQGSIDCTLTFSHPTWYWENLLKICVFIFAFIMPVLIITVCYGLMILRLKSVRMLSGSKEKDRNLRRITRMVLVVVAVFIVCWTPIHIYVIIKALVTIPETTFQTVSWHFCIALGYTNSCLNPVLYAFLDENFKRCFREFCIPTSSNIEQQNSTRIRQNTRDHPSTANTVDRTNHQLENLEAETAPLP
Sequence of Tyrosine-protein kinase Fgr (Homo sapiens) (P09769 2-529 limits assumed): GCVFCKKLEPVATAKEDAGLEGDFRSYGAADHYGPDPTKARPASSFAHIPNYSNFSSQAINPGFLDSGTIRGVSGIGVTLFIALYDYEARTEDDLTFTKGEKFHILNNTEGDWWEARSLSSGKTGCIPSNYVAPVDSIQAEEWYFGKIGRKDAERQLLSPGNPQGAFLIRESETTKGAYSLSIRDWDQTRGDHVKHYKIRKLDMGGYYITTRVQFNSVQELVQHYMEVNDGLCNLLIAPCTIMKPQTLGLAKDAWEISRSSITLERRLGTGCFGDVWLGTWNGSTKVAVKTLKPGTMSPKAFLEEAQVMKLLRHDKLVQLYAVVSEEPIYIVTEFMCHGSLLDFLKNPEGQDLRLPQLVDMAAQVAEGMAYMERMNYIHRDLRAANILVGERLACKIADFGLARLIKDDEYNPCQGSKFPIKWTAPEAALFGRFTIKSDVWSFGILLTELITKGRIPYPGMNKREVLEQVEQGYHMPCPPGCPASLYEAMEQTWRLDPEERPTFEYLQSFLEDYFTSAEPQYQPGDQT

COc1cccc(CNC(=O)c2nc3scc(COCc4ccc(C(=O)O)cc4)c3c(=O)[nH]2)c1 [T-26c]
inactive: residual activity [1] 92.9% | residual activity [2] 100% | residual activity [3] 70.5% | residual activity [4] 80.9% | residual activity [5] 67.3% | residual activity [6] 100% | residual activity [7] 100% | residual activity [8] 82.5% | residual activity [9] 100% | residual activity [10] 100% | residual activity [11] 100% | residual activity [12] 61.7% | residual activity [13] 100% | residual activity [14] 100% | residual activity [15] 88.3% | residual activity [16] 86.5% | residual activity [17] 82.5% | residual activity [18] 82.4% | residual activity [19] 90% | residual activity [20] 93.7% | residual activity [21] 93% | residual activity [22] 72.9% | residual activity [23] 83.9% | residual activity [24] 100% | residual activity [25] 96.8% | residual activity [26] 67.8% | residual activity [27] 93.7% | residual activity [28] 61.5% | residual activity [29] 100% | residual activity [30] 61.7% | residual activity [31] 80.3% | residual activity [32] 100% | residual activity [33] 56.3% | residual activity [34] 72.7% | residual activity [35] 62% | residual activity [36] 95.3% | residual activity [37] 63.2% | residual activity [38] 69.1% | residual activity [39] 86.4% | residual activity [40] 100% | residual activity [41] 100% | residual activity [42] 74.2% | residual activity [43] 54.2% | inhibition [44] -3.34% | inhibition [45] 7.58% | inhibition [46] -5.4%
